Tests used:
[1] = test system: MRC-5 (human embryonic lung fibroblast) cells; assay: Drug toxicity in MRC-5 cells (CellTiter 96); format: cell-based; details: six day incubation, read-out: TC50 (the source's name)
Procedure: Drug toxicity is determined in parallel by seeding MRC-5 cells in 96 well plates and adding drugs to triplicate wells at two dilutions. After a six day incubation period, cell viability is determined using CellTiter 96 Aqueous One Solution (Promega).

HepG2 cells = format: cell-based, human; details: Lamivudine-resistant HBV experiment, read-out: TC50 (the source's name)
Procedure: Human HepG2-2.2.15 cells (ATCC Cat. No. CRL-11997), chronically infected with HBV, are plated in 96-well microtiter plates in DMEM medium supplemented with fetal bovine serum. After incubation at 37° C. in a humidified, 5% CO2 environment for 16-24 hours, the monolayer of HepG2-2.2.15 cells is washed and the medium is replaced with complete medium containing various concentrations of test compound. Every three days during the experiments, the culture medium is replaced with fresh medium containing the appropriately diluted test compound. Six days following the initial administration of the test compound, the cell culture supernatant is collected and clarified by centrifugation. The cell viability is evaluated by a dye uptake procedure (Promega's Cell Titer Aqueous One Solution). Virion-associated HBV DNA present in the tissue culture supernatant is amplified employing PCR technology using primer pairs derived from the HBV strain ayw. Subsequently, the PCR-amplified HBV DNA is detected in real-time by monitoring increases in fluorescence signals that result from exonucleolytic degradation of a quenched fluorescent probe molecule following hybridization of the probe to the amplified HBV DNA (TaqMan; Perkin-Elmer).
The same type of experiments was additionally performed with a mutant, Lamivudine-resistant HBV strain, which was transfected into HepG2 cells.

BCBL-1 cells = assay: Compound toxicity in BCBL-1 cells (Cell Titer Aqueous One); format: cell-based, human; details: read-out: TC50 (the source's name)
Procedure: The human BCBL-1 cell line is available through the AIDS Reference and Reagent Program (Cat.No. 3233). This cell line was derived from a body cavity-based lymphoma latently infected with HHV-8. Culturing these cells in the presence of phorbol ester induces a lytic infection cycle, resulting in the release of viral particles into the medium. Compound efficacy in this proposed assay is determined using TaqMan PCR technology, and compound toxicity is measured by addition of Promega's Cell Titer Aqueous One Solution (metabolic dye).
12. Duplicate plates will be set up plating media in place of TPA for evaluation of compound toxicity.
12. Twenty microliters of Cell Titer Aqueous One Solution (Promega) will be added to each well of the toxicity plates. Plates will be incubated at 37° C. in a humidified CO2 incubator for 4 hours or until sufficient color development has occurred. Plates will be read on a VMax microtiter plate reader at a wavelength of 490/650 nm. Toxicity of the test compound will be determined by comparing the optical density of test wells with that of control wells.

[2] = test system: T-cell-tropic HIV-1NL4/3 strain; assay: Inhibition of T-cell-tropic HIV-1 NL4/3 replication in de novo infected Jurkat cells (p24 antigen); format: cell-based; details: d10
Procedure: HIV replication was measured either by p24 HIV Antigen Capture Assay Kit (ELISA; HIVAG-1 Monoclonal kit BIA011; Abbott) following the manufacturer's recommendation, or by using the Quantiplex HIV-1 RNA 3.0 Assay (bDNA) system (Chiron Diagnostics). The latter assay is a signal amplification nucleic acid probe assay (employing a sandwich nucleic acid hybridization procedure) for direct quantitation of HIV RNA in human plasma. There, in brief, HIV-1 is first concentrated from plasma by centrifugation. After release of genomic HIV-1 RNA from the virions, the RNA is captured to a microwell by a set of specific, synthetic oligonucleotide capture probes. A set of target probes hybridize to both the viral RNA and the pre-amplifier probes. The capture probes, comprised of 17 individual capture extenders, and the target probes, comprised of 81 individual target extenders, bind to different regions of the pol gene of the viral RNA. The amplifier probe hybridizes to the pre-amplifier forming a branched DNA (bDNA) complex. Then, multiple copies of an alkaline phosphatase labeled probe are hybridized to this immobilized bDNA complex. Detection is achieved by incubating the entire complex with a chemoluminescent substrate. Light emission is directly proportional to the amount of HIV-1 RNA present in each sample, and results are recorded as relative light units by an appropriate analyzer.
Jurkat cells (species: human T-cell leukemia; special characteristics: cells are permissive for growth of T-cell tropic HIV strains; source:ATCC Cat.No. TIB 152) or PM1 cells (species: clonal derivative of human HUT 78 cells; special characteristics: cells are permissive for growth of macrophage-tropic and T-cell tropic HIV strains; source: Dr. Marvin Reitz, courtesy of the NIH AIDS Research and Reference Reagent Program Cat.No. 3038) were stimulated with Phytohemagglutinin (PHA-P, Product No. L9132 from Sigma) in a concentration of 2 μg/ml (1.5×10^6 cells/ml) and Hexadimethrine Bromide (Polybrene, Product No. H9268 from Sigma) in a concentration of 2 μg/ml (1.5×10^6 cells/ml) in RPMI 1640 medium containing 10% fetal calf serum (FCS, Pansystems GmbH) and antibiotics for 3 days.
For HIV-1 infection, 5×10^7 cells were resuspended in 500 μl culture medium without test drugs and incubated in a 50 ml blue-cap-tube at 37° C. for 5 hrs with HIV-1 high titer viral stocks. Jurkat cells were infected with the T-cell tropic strain HIV-1 NL4-3, PM1 cells with the macrophage tropic strain HIV-1 Ba-L (both from the NIH AIDS Research and Reference Reagent Program). After infection, cells were washed twice with PBS without Ca^2+ and Mg^2+ to avoid false positive p24 antigen determination. Cells were resuspended, and identical aliquots (1×10^6/ml) of infected cells were further cultured in 10 ml medium with test drugs at various concentrations, or in medium with DMSO as control for calculation of the inhibition of virus replication (in %].
Culture medium was changed and cells were split at days 3 and 7 of the experiments. Viability of the cells (Trypan-blue staining), cell counts and p24 antigen levels were determined at days 3, 7 and 10 of the experiments. No significant differences in cell viability were observed (˜85-90% living cells).
At day 10 of infection, the HIV strains replicated vigorously in untreated cultures. Numbers describe percent inhibition of HIV replication as compared to control experiments.

CC(=NNC(=N)N)c1cc(NC(=O)CCCCCCCCC(=O)Nc2cc(C(C)=NNC(=N)N)cc(C(C)=NNC(=N)N)c2)cc(C(C)=NNC(=N)N)c1 [Compound 4, N,N′-bis (3,5-diacetylphenyl) decane diamide tetrakis (amidinohydrazone)]
CC50 [1]: 13.6 µM | CC50 (HepG2 cells): 24.7 µM | CC50 (BCBL-1 cells): 78.9 µM | percent inhibition of HIV replication as compared to control ([2]; HIV-1 NL4/3, 0.5 μM): 31% | percent inhibition of HIV replication as compared to control ([2]; HIV-1 NL4/3, 1.0 μM): 85%

Reference: patent US20030203969A1, “Pharmaceutically active aromatic guanylhydrazones” (priority 2000, published 2003)
